Data reported in patent US20260250320A1, “LIPIDATED PEPTIDE INHIBITORS OF INTERLEUKIN-23 RECEPTOR” (Janssen Pharmaceutica NV, priority 2023, published 2026).
*1 amine or outer side, *2 acyl side, *3 side chain or, on linkers, in order; H or OH if unused. Where a SMILES comes first, the peptide text is derived from it. Bridges are numbered along the chain shown (N, C = ends). Side-chain parts run from the residue outwards. [ ]: non-standard residue; d: D form. The star is where a group is joined. ξ: configuration not given here. X21 = NC(=O)C[C@H](N[*:1])C(=O)C[C@@H](Cc1cccnc1)C(=O)[*:2]; Me3N+CH2CH2(OCH2CH2)4CO = C[N+](C)(C)CCOCCOCCOCCOCCC(=O)*; Me3N+(CH2)2O(CH2)2O(CH2)2CO = C[N+](C)(C)CCOCCOCCC(=O)*; PEG12 = NCCOCCOCCOCCOCCOCCOCCOCCOCCOCCOCCOCCOCCC(=O)O; Trp(7-Me) = Cc1cccc2c(C[C@H](N)C(=O)O)c[nH]c12; C20 diacid = O=C(O)CCCCCCCCCCCCCCCCCCC(=O)*; Abu(4-yl) = O=C([C@H](CC[*:3])N[*:1])[*:2]; C18 diacid = O=C(O)CCCCCCCCCCCCCCCCC(=O)*; γGlu = O=C(O)[C@H](CCC(=O)[*:2])N[*:1]; 2Nal = N[C@@H](Cc1ccc2ccccc2c1)C(=O)O; AEF = NCCOc1ccc(C[C@H](N)C(=O)O)cc1; ξAEF = NCCOc1ccc(CC(N)C(=O)O)cc1; 3Pal = N[C@@H](Cc1cccnc1)C(=O)O; Lys(Me) = CNCCCC[C@H](N)C(=O)O; aThr = C[C@H](O)[C@H](N)C(=O)O; NMeK = CN[C@@H](CCCCN)C(=O)O; Pen = CC(C)(S)[C@H](N)C(=O)O; Lauroyl = CCCCCCCCCCCC(=O)*; αMeC = C[C@](N)(CS)C(=O)O; ξR = N=C(N)NCCCC(N)C(=O)O; Thp = NC1(C(=O)O)CCOCC1; Abu = CC[C@H](N)C(=O)O; AEEA = NCCOCCOCC(=O)O; Sar = CNCC(=O)O

How the values were obtained:
IL-23R = target: T1, IL-23R (Homo sapiens, UniProt Q5VWK5); test: IL23R Reporter Assay; type: cell-based; details: HEK293 cells containing IL-23R, IL-12Rβ1 and STAT-inducible firefly luciferase reporter; 10 ng/mL IL-23 (EC90); 5 h
T1 construct: HEK293 cells containing IL-23R, IL-12Rβ1 and a firefly luciferase reporter gene driven by a STAT-inducible promoter (Promega); host or cells: HEK293
T1 sequence (Q5VWK5 24-629): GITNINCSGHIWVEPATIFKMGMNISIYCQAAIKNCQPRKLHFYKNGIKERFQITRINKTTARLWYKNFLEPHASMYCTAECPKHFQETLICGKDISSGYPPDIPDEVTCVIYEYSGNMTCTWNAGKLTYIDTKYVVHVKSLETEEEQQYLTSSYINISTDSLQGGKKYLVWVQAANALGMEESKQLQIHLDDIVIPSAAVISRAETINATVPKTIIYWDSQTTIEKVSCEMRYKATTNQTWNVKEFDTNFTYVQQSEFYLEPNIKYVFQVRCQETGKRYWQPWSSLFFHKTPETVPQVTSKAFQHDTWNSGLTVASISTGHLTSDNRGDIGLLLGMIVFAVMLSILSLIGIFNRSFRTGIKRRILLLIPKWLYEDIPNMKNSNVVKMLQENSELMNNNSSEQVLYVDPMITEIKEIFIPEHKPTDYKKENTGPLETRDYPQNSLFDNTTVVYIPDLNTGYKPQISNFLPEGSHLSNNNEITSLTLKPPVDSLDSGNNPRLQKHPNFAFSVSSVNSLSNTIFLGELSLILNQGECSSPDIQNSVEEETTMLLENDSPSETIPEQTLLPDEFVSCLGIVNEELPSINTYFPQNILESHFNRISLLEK
How it was run: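 IC50 values were fitted with a 4-parameter Hill equation to luciferase signal, scaled between IL-23-only wells (0% inhibition) and 30 μM reference inhibitor (100%). The readout was a STAT-inducible reporter in IL-23R/IL-12Rβ1 HEK293 cells, stimulated with added 10 ng/mL IL-23 (EC90) for 5 h at 37° C and developed with BioGlo.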

[1] = system: IL-23-stimulated phosphorylated STAT3 in peripheral blood mononuclear cells (PBMCs); test: PBMC pSTAT3 Assay; type: cell-based; details: PBMCs from healthy donors; 30 min preincubation with peptide; IL-23 5 ng/mL for 30 min; phospho-STAT3 by MSD
How it was run: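 Phospho-STAT3 quantified by Meso Scale assay in lysates of PBMCs exposed to IL-23 (5 ng/mL, 30 min, 37 °C) after 30 min peptide pretreatment. Cells were cryopreserved donor PBMCs activated 4 days with anti-CD3 plus IL-1β (100 ng/mL) and starved ~4 h; IC50 reported.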

Structure (SMILES) | IC50 (IL-23R) | IC50 [1]
CC(=O)NCCCC[C@@H]1NC(=O)[C@H](Cc2c[nH]c3c(C)cccc23)NC(=O)[C@H]([C@@H](C)O)NC(=O)[C@H](CC(N)=O)NC(=O)[C@@H](NC(=O)[C@@H](CCCCNC(=O)CCOCCOCCOCCOCCOCCOCCOCCOCCOCCOCCOCCOCCNC(=O)CC[C@H](NC(=O)CCCCCCCCCCCCCCCCC(=O)O)C(=O)O)NC(C)=O)C(C)(C)SSC(C)(C)[C@@H](C(=O)N[C@@H](Cc2ccc(OCCN)cc2)C(=O)N[C@@H](Cc2ccc3ccccc3c2)C(=O)NC2(C(=O)N[C@@H](CCCCNC(C)=O)C(=O)N[C@@H](CC(N)=O)C(=O)N[C@@H](Cc3cccnc3)C(=O)N(C)CC(N)=O)CCOCC2)NC1=O [compound 98, MeCO-k(PEG12gEC18OH)-Pen(3)-N-T-7MeW-K(Ac)-Pen(3)-AEF-2Nal-THP-K(Ac)-N-3Pya-Sar-CONH2] (Ac-[dK]([PEG12-γGlu-C18 diacid])[Pen]NT[Trp(7-Me)]K(Ac)[Pen][AEF][2Nal][Thp]K(Ac)N[3Pal][Sar]-NH2; disulfide 2-7) | < 50 nM | < 0.5 nM
Cc1cccc2c(C[C@@H]3NC(=O)[C@H]([C@@H](C)O)NC(=O)[C@H](CC(N)=O)NC(=O)[C@@H](NC(=O)[C@@H](CCCNC(=N)N)NC(=O)CCOCCOCC[N+](C)(C)C)C(C)(C)SSC(C)(C)[C@@H](C(=O)N[C@@H](Cc4ccc(OCCN)cc4)C(=O)N[C@@H](Cc4ccc5ccccc5c4)C(=O)NC4(C(=O)N[C@@H](CCC(=O)O)C(=O)N[C@@H](CC(N)=O)C(=O)N[C@@H](Cc5cccnc5)C(=O)N(C)CC(N)=O)CCOCC4)NC(=O)[C@H](CCCCNC(=O)COCCOCCNC(=O)COCCOCCNC(=O)CC[C@H](NC(=O)CCCCCCCCCCCCCCCCC(=O)O)C(=O)O)NC3=O)c[nH]c12 [compound 72, cPEG3aCO-r-Pen(3)-N-T-7MeW-K(PEG2PEG2C18OH)-Pen(3)-AEF-2Nal-THP-E-N-3Pya-Sar-CONH2] ({Me3N+(CH2)2O(CH2)2O(CH2)2CO}-[dR][Pen]NT[Trp(7-Me)]K([AEEA-AEEA-γGlu-C18 diacid])[Pen][AEF][2Nal][Thp]EN[3Pal][Sar]-NH2; disulfide 2-7) | 50 to 500 nM | < 0.5 nM
CC(=O)NCCCC[C@@H]1NC(=O)[C@H](Cc2c[nH]c3c(C)cccc23)NC(=O)[C@H]([C@@H](C)O)NC(=O)[C@H](CC(N)=O)NC(=O)[C@@H](NC(C)=O)C(C)(C)SSC(C)(C)[C@@H](C(=O)N[C@@H](Cc2ccc(OCCN)cc2)C(=O)N[C@@H](Cc2ccc3ccccc3c2)C(=O)NC2(C(=O)N[C@@H](CCCCNC(=O)CCC(=O)N[C@H](CC(=O)O)C[N+](C)(C)C)C(=O)N[C@@H](CC(N)=O)C(=O)N[C@@H](Cc3cccnc3)C(=O)N(C)[C@@H](CCCCNC(=O)COCCOCCNC(=O)COCCOCCNC(=O)CC[C@H](NC(=O)CCCCCCCCCCCCCCCCC(=O)O)C(=O)O)C(N)=O)CCOCC2)NC1=O [compound 28, MeCO-Pen(3)-N-T-7MeW-K(Ac)-Pen(3)-AEF-2Nal-THP-K(d)-N-3Pya-NMeK(PEG2PEG2gEC18OH)-CONH2] | 50 to 500 nM | < 0.5 nM
CC[C@@H]1NC(=O)[C@H](Cc2c[nH]c3c(C)cccc23)NC(=O)[C@H]([C@@H](C)O)NC(=O)[C@H](CC(=O)N(C)C)NC(=O)[C@@H](NC(=O)CCOCCOCCOCCOCC[N+](C)(C)C)C(C)(C)SSC(C)(C)[C@@H](C(=O)NC(Cc2ccc(OCCN)cc2)C(=O)N[C@@H](Cc2ccc3ccccc3c2)C(=O)NC2(C(=O)N[C@@H](CCC(=O)O)C(=O)N[C@@H](CC(N)=O)C(=O)N[C@@H](Cc3cccnc3)C(=O)N(C)[C@@H](CCCCNC(=O)COCCOCCNC(=O)COCCOCCNC(=O)CC[C@H](NC(=O)CCCCCCCCCCCCCCCCCCC(=O)O)C(=O)O)C(N)=O)CCOCC2)NC1=O (stereo partly shown) [compound 152, cPEG5aCO-Pen(3)-N(N(Me)2)-T-7MeW-Dab(NMecPEG5A)-Pen(3)-AEF-2Nal-THP-E-N-3Pya-NMeK(PEG2PEG2gEC20OH)-CONH2] ({Me3N+CH2CH2(OCH2CH2)4CO}-[Pen]D(NMe2)T[Trp(7-Me)][Abu][Pen][ξAEF][2Nal][Thp]EN[3Pal][NMeK]([AEEA-AEEA-γGlu-C20 diacid])-NH2; disulfide 1-6) | 50 to 500 nM | < 0.5 nM
CCCCCCCCCCCC(=O)N[C@@H](CCC(=O)NCCOCCOCC(=O)NCCOCCOCC(=O)NC(CCCNC(=N)N)C(=O)N[C@H]1CCSC[C@@](C)(C(=O)N[C@@H](Cc2ccc(OCCN)cc2)C(=O)N[C@@H](Cc2ccc3ccccc3c2)C(=O)NC2(C(=O)N[C@@H](CCC(=O)O)C(=O)N[C@@H](CC(N)=O)C(=O)N[C@@H](Cc3cccnc3)C(=O)N(C)CC(N)=O)CCOCC2)NC(=O)[C@H](CCCCNC(C)=O)NC(=O)[C@H](Cc2c[nH]c3ccccc23)NC(=O)[C@H]([C@H](C)O)NC(=O)[C@H](CC(N)=O)NC1=O)C(=O)O (stereo partly drawn) [compound 5, C12gEPEG2PEG2CO-r-Abu(1)-N-T-W-K(Ac)-aMeC(1)-AEF-2Nal-THP-E-N-3Pya-Sar-CONH2] ({Lauroyl-γGlu-AEEA-AEEA}-[ξR][Abu(4-yl)]N[aThr]WK(Ac)[αMeC][AEF][2Nal][Thp]EN[3Pal][Sar]-NH2; thioether 2-7) | < 50 nM | 0.5 to 5 nM

Further lines, with some results ahead:

IC50 (IL-23R) | Structure (SMILES) | IC50 [1]
50 to 500 nM | CC(=O)N[C@H](CCCNC(=N)N)C(=O)N[C@@H]1C(=O)N[C@@H](CC(N)=O)C(=O)N[C@@H]([C@@H](C)O)C(=O)N[C@@H](Cc2c[nH]c3c(C)cccc23)C(=O)N[C@@H](CCCCNC(=O)COCCOCCNC(=O)COCCOCCNC(=O)CC[C@H](NC(=O)CCCCCCCCCCCCCCCCC(=O)O)C(=O)O)C(=O)N[C@H](C(=O)N[C@@H](Cc2ccc(OCCN)cc2)C(=O)N[C@@H](Cc2ccc3ccccc3c2)C(=O)NC2(C(=O)N[C@@H](CCCCN(C)C(=O)CCOCCOCC[N+](C)(C)C)C(=O)N[C@@H](CC(N)=O)C(=O)C[C@@H](Cc3cccnc3)C(=O)N(C)CC(N)=O)CCOCC2)C(C)(C)SSC1(C)C [compound 79, MeCO-r-Pen(3)-N-T-7MeW-K(PEG2PEG2gEC18OH)-Pen(3)-AEF-2Nal-THP-K(NMecPEG3a)-N-3Pya-Sar-CONH2] (Ac-[dR][Pen]NT[Trp(7-Me)]K([AEEA-AEEA-γGlu-C18 diacid])[Pen][AEF][2Nal][Thp][Lys(Me)](Me3N+(CH2)2O(CH2)2O(CH2)2CO)[X21][Sar]-NH2; disulfide 2-7) | < 0.5 nM
< 50 nM | CC(=O)N[C@H](CCCNC(=N)N)C(=O)N[C@@H]1C(=O)N[C@@H](CC(N)=O)C(=O)N[C@@H]([C@@H](C)O)C(=O)N[C@@H](Cc2c[nH]c3c(C)cccc23)C(=O)N[C@@H](CCC(N)=O)C(=O)N[C@H](C(=O)N[C@@H](Cc2ccc(OCCN)cc2)C(=O)N[C@@H](Cc2ccc3ccccc3c2)C(=O)NC2(C(=O)N[C@@H](CCC(=O)O)C(=O)N[C@@H](CC(N)=O)C(=O)N[C@@H](Cc3cccnc3)C(=O)N(C)CC(=O)N[C@@H](CCCCNC(=O)COCCOCCNC(=O)COCCOCCNC(=O)CC[C@H](NC(=O)CCCCCCCCCCCCCCCCC(=O)O)C(=O)O)C(=O)O)CCOCC2)C(C)(C)SSC1(C)C [compound 38, MeCO-r-Pen(3)-N-T-7MeW-Q-Pen(3)-AEF-2Nal-THP-E-N-3Pya-Sar-K(PEG2PEG2gEC18OH)-CONH2] (Ac-[dR][Pen]NT[Trp(7-Me)]Q[Pen][AEF][2Nal][Thp]EN[3Pal][Sar]K([AEEA-AEEA-γGlu-C18 diacid])-OH; disulfide 2-7) | < 0.5 nM
< 50 nM | CC(=O)N[C@H](CCCNC(=N)N)C(=O)N[C@@H]1C(=O)N[C@@H](CC(N)=O)C(=O)N[C@@H]([C@@H](C)O)C(=O)N[C@@H](Cc2c[nH]c3c(C)cccc23)C(=O)N[C@@H](CCCCN(C)C(=O)CCOCCOCC[N+](C)(C)C)C(=O)N[C@H](C(=O)N[C@@H](Cc2ccc(OCCN)cc2)C(=O)N[C@@H](Cc2ccc3ccccc3c2)C(=O)NC2(C(=O)N[C@@H](CCC(=O)O)C(=O)N[C@@H](CC(N)=O)C(=O)N[C@@H](Cc3cccnc3)C(=O)N(C)CC(=O)N[C@@H](CCCCNC(=O)COCCOCCNC(=O)COCCOCCNC(=O)CC[C@H](NC(=O)CCCCCCCCCCCCCCCCC(=O)O)C(=O)O)C(N)=O)CCOCC2)C(C)(C)SSC1(C)C [compound 70, MeCO-r-Pen(3)-N-T-7MeW-K(NMecPEG3a)-Pen(3)-AEF-2Nal-THP-E-N-3Pya-Sar-K(PEG2PEG2C18OH)-CONH2] (Ac-[dR][Pen]NT[Trp(7-Me)][Lys(Me)](Me3N+(CH2)2O(CH2)2O(CH2)2CO)[Pen][AEF][2Nal][Thp]EN[3Pal][Sar]K([AEEA-AEEA-γGlu-C18 diacid])-NH2; disulfide 2-7) | < 0.5 nM
